# System: HCT116 MTAP-/- cells
# Assay: Cell growth inhibition test (SRB staining)
# Assay type: cell-based
# Conditions: HCT116 MTAP-/- cells, 0.64 nM - 2,000 nM, 6 dose points, 6 days, SRB staining, absorbance at 540 nm; read-out: HCT116 MTAP-/- cell growth inhibition (GI50)
# Description: The synthetic compounds above were tested for cell growth inhibition against HCT116 cells.
# HCT116 MTAP-/- (homozygous knockout of MTAP gene in HCT116 MTAP-WT cells by CRISPER/Cas9 method) cells were maintained in RPMI1640 medium containing 10 % FBS and 1 % penicillin-streptomycin. Approximately 5×10^2 cells were seeded in a 96-well plate and treated with a test compound. (0.64 nM - 2,000 nM, 6 dose points for HCT116 MTAP-/- cells for 5x and 6 days) cell growth was measured by SRB staining and absorbance was detected at 540 nm on a Synergy™ NEO microplate reader. The 50 % growth inhibition value (GI50) of the cell line was calculated using GraphPad Prism V9 software.
row,GI50,Compound
1,< 100 nM,"7-chloro-2-(4-methoxyphenyl)-1-methyl-5-(o-tolyl)-1,5-dihydro-4H-imidazo[4,5-c]quinolin-4-one [Compound 10]"

# Same assay, conditions: Homo sapiens, HCT-116, 144 h, read-out: HCT116 MTAP-/- cell growth inhibition (GI50, nM)
row,Compound,GI50
1,"Cn1c(Cc2ccccc2)nc2c(=O)n(-c3ccccc3)c3cc(Cl)ccc3c21 [Compound 1, 2-benzyl-7-chloro-1-methyl-5-phenyl-1,5-dihydro-4H-imidazo[4,5-c]quinolin-4-one]",100 to 500 nM

# Same assay, conditions: Homo sapiens, HCT-116, 144 h; HCT116 MTAP-/- cells, 0.64 nM - 2,000 nM, 6 dose points, 6 days, SRB staining, absorbance at 540 nm; read-out: HCT116 MTAP-/- cell growth inhibition (GI50)
row,GI50,Compound
1,< 100 nM,"COc1ccc(Cc2nc3c(=O)n(-c4ccccc4)c4cc(Cl)ccc4c3n2C)cc1 [Compound 2, 7-chloro-2-(4-methoxybenzyl)-1-methyl-5-phenyl-1,5-dihydro-4H-imidazo[4,5-c]quinolin-4-one]"
2,> 1000 nM,"Cn1c(Cc2ccc(O)cc2)nc2c(=O)n(-c3ccccc3)c3cc(Cl)ccc3c21 [Compound 3, 7-chloro-2-(4-hydroxybenzyl)-1-methyl-5-phenyl-1,5-dihydro-4H-imidazo[4,5-c]quinolin-4-one]"
3,< 100 nM,"COc1cccc(Cc2nc3c(=O)n(-c4ccccc4)c4cc(Cl)ccc4c3n2C)c1 [Compound 4, 7-chloro-2-(3-methoxybenzyl)-1-methyl-5-phenyl-1,5-dihydro-4H-imidazo[4,5-c]quinolin-4-one]"
4,100 to 500 nM,"COc1ccccc1Cc1nc2c(=O)n(-c3ccccc3)c3cc(Cl)ccc3c2n1C [Compound 5, 7-chloro-2-(2-methoxybenzyl)-1-methyl-5-phenyl-1,5-dihydro-4H-imidazo[4,5-c]quinolin-4-one]"
5,100 to 500 nM,"Cn1c(Cc2ccc(Cl)cc2)nc2c(=O)n(-c3ccccc3)c3cc(Cl)ccc3c21 [Compound 6, 7-chloro-2-(4-chlorobenzyl)-1-methyl-5-phenyl-1,5-dihydro-4H-imidazo[4,5-c]quinolin-4-one]"
6,> 1000 nM,"Cn1c(Cc2ccncc2)nc2c(=O)n(-c3ccccc3)c3cc(Cl)ccc3c21 [Compound 7, 7-chloro-1-methyl-5-phenyl-2-(pyridin-4-ylmethyl)-1,5-dihydro-4H-imidazo[4,5-c]quinolin-4-one]"
7,100 to 500 nM,"COc1ccc(Cc2nc3c(=O)n(-c4ccccc4)c4cc(Cl)ccc4c3n2C)cc1OC [Compound 8, 7-chloro-2-(3,4-dimethoxybenzyl)-1-methyl-5-phenyl-1,5-dihydro-4H-imidazo[4,5-c]quinolin-4-one]"
8,> 1000 nM,"Cn1c(CCc2ccccc2)nc2c(=O)n(-c3ccccc3)c3cc(Cl)ccc3c21 [Compound 9, 7-chloro-1-methyl-2-phenethyl-5-phenyl-1,5-dihydro-4H-imidazo[4,5-c]quinolin-4-one]"
9,500 to 1000 nM,"O=c1c2nc(Cc3ccccc3)[nH]c2c2ccc(Cl)cc2n1-c1ccccc1 [Compound 11, 2-benzyl-7-chloro-5-phenyl-1,5-dihydro-4H-imidazo[4,5-c]quinolin-4-one]"
10,> 1000 nM,"Cn1c(Cn2ccnc2)nc2c(=O)n(-c3ccccc3)c3cc(Cl)ccc3c21 [Compound 12, 2-((1H-imidazol-1-yl)methyl)-7-chloro-1-methyl-5-phenyl-1,5-dihydro-4H-imidazo[4,5-c]quinolin-4-one]"
11,> 1000 nM,"COc1ccc(Cc2nc3c(=O)n(-c4ccccc4)c4nc(NCC(F)(F)F)ccc4c3n2C)cc1 [Compound 15, 2-(4-methoxybenzyl)-1-methyl-5-phenyl-7-((2,2,2-trifluoroethyl)amino)-1,5-dihydro-4H-imidazo[4,5-c][1,8]naphthyridin-4-one]"
12,> 1000 nM,"COc1ccc(Cc2nc3c(=O)n(-c4ccc(Cl)c(F)c4)c4cc(Cl)ccc4c3n2C)cc1 [Compound 16, 7-chloro-5-(4-chloro-3-fluorophenyl)-2-(4-methoxybenzyl)-1-methyl-1,5-dihydro-4H-imidazo[4,5-c]quinolin-4-one]"
13,> 1000 nM,"COc1ccc(Cc2nc3c(=O)n(-c4ccc(F)c(Cl)c4)c4cc(Cl)ccc4c3n2C)cc1 [Compound 17, 7-chloro-5-(3-chloro-4-fluorophenyl)-2-(4-methoxybenzyl)-1-methyl-1,5-dihydro-4H-imidazo[4,5-c]quinolin-4-one]"
14,< 100 nM,"COc1ccc(Sc2nc3c(=O)n(-c4ccccc4)c4cc(Cl)ccc4c3n2C)cc1 [Compound 18, 7-chloro-2-((4-methoxyphenyl)thio)-1-methyl-5-phenyl-1,5-dihydro-4H-imidazo[4,5-c]quinolin-4-one]"
15,500 to 1000 nM,"COc1ccc(S(=O)(=O)c2nc3c(=O)n(-c4ccccc4)c4cc(Cl)ccc4c3n2C)cc1 [Compound 19, 7-chloro-2-((4-methoxyphenyl)sulfonyl)-1-methyl-5-phenyl-1,5-dihydro-4H-imidazo[4,5-c]quinolin-4-one]"
16,500 to 1000 nM,"COc1ccc([S+]([O-])c2nc3c(=O)n(-c4ccccc4)c4cc(Cl)ccc4c3n2C)cc1 (stereo not drawn) [Compound 20, 7-chloro-2-((4-methoxyphenyl)sulfinyl)-1-methyl-5-phenyl-1,5-dihydro-4H-imidazo[4,5-c]quinolin-4-one]"

row,GI50,Compound
1,< 100 nM,"COc1ccc(Cc2nc3c(=O)n(-c4cccnc4C)c4cc(Cl)ccc4c3n2C)cc1 [Compound 21, 7-chloro-2-(4-methoxybenzyl)-1-methyl-5-(2-methylpyridin-3-yl)-1,5-dihydro-4H-imidazo[4,5-c]quinolin-4-one]"
2,500 to 1000 nM,"COc1ccc(Cc2nc3c(=O)n(-c4cccnc4C)c4ccccc4c3n2C)cc1 [Compound 22, 2-(4-methoxybenzyl)-1-methyl-5-(2-methylpyridin-3-yl)-1,5-dihydro-4H-imidazo[4,5-c]quinolin-4-one]"
3,100 to 500 nM,"COc1ccc(Cc2nc3c(=O)n(-c4cccnc4C(F)(F)F)c4cc(Cl)ccc4c3n2C)cc1 [Compound 23, 7-chloro-2-(4-methoxybenzyl)-1-methyl-5-(2-(trifluoromethyl)pyridin-3-yl)-1,5-dihydro-4H-imidazo[4,5-c]quinolin-4-one]"
4,100 to 500 nM,"COc1ccc(Cc2nc3c(=O)n(-c4cccnc4C4CC4)c4cc(Cl)ccc4c3n2C)cc1 [Compound 24, 7-chloro-5-(2-cyclopropylpyridin-3-yl)-2-(4-methoxybenzyl)-1-methyl-1,5-dihydro-4H-imidazo[4,5-c]quinolin-4-one]"
5,100 to 500 nM,"COc1ccc(Cc2nc3c(=O)n(-c4ccccc4C(F)(F)F)c4cc(Cl)ccc4c3n2C)cc1 [Compound 25, 7-chloro-2-(4-methoxybenzyl)-1-methyl-5-(2-(trifluoromethyl)phenyl)-1,5-dihydro-4H-imidazo[4,5-c]quinolin-4-one]"
6,100 to 500 nM,"COc1ccc(Cc2nc3c(=O)n(-c4ccccc4Cl)c4cc(Cl)ccc4c3n2C)cc1 [Compound 26, 7-chloro-5-(2-chlorophenyl)-2-(4-methoxybenzyl)-1-methyl-1,5-dihydro-4H-imidazo[4,5-c]quinolin-4-one]"
7,< 100 nM,"COc1ccc(Cc2nc3c(=O)n(-c4cccnc4C)c4cc(C(F)(F)F)ccc4c3n2C)cc1 [Compound 27, 2-(4-methoxybenzyl)-1-methyl-5-(2-methylpyridin-3-yl)-7-(trifluoromethyl)-1,5-dihydro-4H-imidazo[4,5-c]quinolin-4-one]"
8,< 100 nM,"Cc1ncccc1-n1c(=O)c2nc(Cc3ccc(F)cc3)n(C)c2c2ccc(Cl)cc21 [Compound 28, 7-chloro-2-(4-fluorobenzyl)-1-methyl-5-(2-methylpyridin-3-yl)-1,5-dihydro-4H-imidazo[4,5-c]quinolin-4-one]"
9,< 100 nM,"Cc1ncccc1-n1c(=O)c2nc(Cc3ccc4c(c3)OCO4)n(C)c2c2ccc(Cl)cc21 [Compound 29, 2-(benzo[d][1,3]dioxol-5-ylmethyl)-7-chloro-1-methyl-5-(2-methylpyridin-3-yl)-1,5-dihydro-4H-imidazo[4,5-c]quinolin-4-one]"
10,< 100 nM,"Cc1ncccc1-n1c(=O)c2nc(Cc3ccc(F)c(F)c3)n(C)c2c2ccc(Cl)cc21 [Compound 30, 7-chloro-2-(3,4-difluorobenzyl)-1-methyl-5-(2-methylpyridin-3-yl)-1,5-dihydro-4H-imidazo[4,5-c]quinolin-4-one]"
11,< 100 nM,"COc1ccc(Cc2nc3c(=O)n(-c4cccnc4)c4cc(Cl)ccc4c3n2C)cc1 [Compound 31, 7-chloro-2-(4-methoxybenzyl)-1-methyl-5-(pyridin-3-yl)-1,5-dihydro-4H-imidazo[4,5-c]quinolin-4-one]"
12,> 1000 nM,"COc1ccc(Cc2nc3c(=O)n(-c4ccc(F)cc4)c4cc(Cl)ccc4c3n2C)cc1 [Compound 32, 7-chloro-5-(4-fluorophenyl)-2-(4-methoxybenzyl)-1-methyl-1,5-dihydro-4H-imidazo[4,5-c]quinolin-4-one]"
13,< 100 nM,"Cc1ncccc1-n1c(=O)c2nc(Cc3ccc(OC(F)F)cc3)n(C)c2c2ccc(Cl)cc21 [Compound 33, 7-chloro-2-(4-(difluoromethoxy)benzyl)-1-methyl-5-(2-methylpyridin-3-yl)-1,5-dihydro-4H-imidazo[4,5-c]quinolin-4-one]"
14,> 1000 nM,"COc1ccc(Sc2nc3c(=O)n(-c4ccc(OC)cc4)c4cc(Cl)ccc4c3n2C)cc1 [Compound 34, 7-chloro-5-(4-methoxyphenyl)-2-((4-methoxyphenyl)thio)-1-methyl-1,5-dihydro-4H-imidazo[4,5-c]quinolin-4-one]"
15,< 100 nM,"COc1ccc(Sc2nc3c(=O)n(-c4cccnc4C)c4cc(Cl)ccc4c3n2C)cc1 [Compound 35, 7-chloro-2-((4-methoxyphenyl)thio)-1-methyl-5-(2-methylpyridin-3-yl)-1,5-dihydro-4H-imidazo[4,5-c]quinolin-4-one]"

# From patent publication EP4582423A1, “NOVEL TRICYCLIC DERIVATIVE COMPOUND AND USES THEREOF” (Hanmi Pharm. Co., Ltd., priority 2022, dated 2024)
